Activity calls are given as the source filed them.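 Rule for the calls: active = none, because compounds meeting the potency rule were filed inconclusive for hitting several proteins; inconclusive = EC50 under 20 µM with over 15% binding change; inactive = the rest.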
Experiments:
Assay in all cases: small GTPase panel, fluorescent GTP binding blockade – biochemical, Mg buffer, constant GTP, RhoA, Rac1, Cdc42, mechanism study for Ras-family GTPase inhibitor project, profiling panel (AID 2393);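 for EC50: EC50 marks half change in GTP binding and may reflect gain or loss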
Conditions in all cases: GST-GTPase beads, BODIPY-GTP binding, flow cytometry; for GTP binding remaining (% of DMSO): at 100 µM (top of the series)
[1] = target: Cell division control protein 42 homolog (Homo sapiens) (UniProt P60953)
[2] = target: Ras-related C3 botulinum toxin substrate 1 (Homo sapiens) (UniProt P63000)
[3] = target: Transforming protein RhoA (Homo sapiens) (UniProt P61586)

| Compound | GTP binding remaining (% of DMSO) ([1]; Cdc42ACT) | GTP binding remaining (% of DMSO) ([1]; Cdc42WT) | GTP binding remaining (% of DMSO) ([3]; RhoACT) | GTP binding remaining (% of DMSO) ([3]; RhoWT) | EC50 ([3]; RhoWT) | EC50 ([1]; Cdc42ACT) | EC50 ([1]; Cdc42WT) | EC50 ([3]; RhoACT) | GTP binding remaining (% of DMSO) ([2]; Rac1ACT) | GTP binding remaining (% of DMSO) ([2]; Rac1WT) | EC50 ([2]; Rac1WT) | EC50 ([2]; Rac1ACT) |
| --- | --- | --- | --- | --- | --- | --- | --- | --- | --- | --- | --- | --- |
| COc1ccc(C2CC(c3ccccc3)=NN2c2ccc(S(N)(=O)=O)cc2)cc1 (stereo not given) | – | – | inactive | inactive | – | 2.73 µM | 2.5 µM | – | – | inactive | – | inactive |
| COc1ccc(C2=NN(c3ccc(S(N)(=O)=O)cc3)C(c3ccc(OC)cc3)C2)cc1 (stereo not given) | – | inactive | inactive | inactive | – | inactive | – | – | inactive | inactive | – | – |
| Cc1cccc(C2CC(c3ccccc3)=NN2c2ccc(S(N)(=O)=O)cc2)c1 (stereo not given) | – | – | inactive | inactive | – | 8.35 µM | 7.7 µM | – | inactive | inactive | – | – |
| COc1ccc(C2CC(c3ccc(Br)cc3)=NN2c2ccc(S(N)(=O)=O)cc2)cc1 (stereo not given) | inactive | inactive | inactive | inactive | – | – | – | – | inactive | inactive | – | – |
| NS(=O)(=O)c1ccc(N2N=C(c3ccccc3)CC2c2cccc(Br)c2)cc1 (stereo not given) | – | – | inactive | inactive | – | 5.86 µM | 6.95 µM | – | inactive | inactive | – | – |
| NS(=O)(=O)c1ccc(N2N=C(c3ccccc3)CC2c2ccc(Br)cc2)cc1 (stereo not given) | – | – | inactive | inactive | – | 1.65 µM | 1.49 µM | – | inactive | – | inactive | – |
| COc1ccc(C2CC(c3cccs3)=NN2c2ccc(S(N)(=O)=O)cc2)cc1 (stereo not given) | – | – | inactive | inactive | – | 4.28 µM | 4.08 µM | – | inactive | inactive | – | – |
| COc1ccc(C2CC(c3cccc(OC)c3)=NN2c2ccc(S(N)(=O)=O)cc2)cc1 (stereo not given) | – | – | inactive | inactive | – | inactive | 1.9 µM | – | inactive | inactive | – | – |
| NS(=O)(=O)c1ccc(N2N=C(c3ccccc3)CC2c2ccc(Cl)cc2)cc1 (stereo not given) | – | – | inactive | inactive | – | 4.22 µM | 3.94 µM | – | inactive | – | inactive | – |
| COc1ccc(C2CC(c3ccccc3C)=NN2c2ccc(S(N)(=O)=O)cc2)cc1 (stereo not given) | inactive | inactive | inactive | inactive | – | – | – | – | inactive | inactive | – | – |
| NS(=O)(=O)c1ccc(N2N=C(c3ccccc3)CC2c2cccc(Cl)c2)cc1 (stereo not given) | – | – | inactive | inactive | – | 5.08 µM | 3.95 µM | – | – | – | inactive | inactive |
| NS(=O)(=O)c1ccc(N2N=C(c3ccccc3)CC2c2ccccc2)cc1 (stereo not given) | – | – | inactive | inactive | – | 13.1 µM | 13.4 µM | – | inactive | inactive | – | – |
| Cc1ccc(C2CC(c3ccccc3)=NN2c2ccc(S(N)(=O)=O)cc2)cc1 (stereo not given) | – | – | inactive | inactive | – | 5.07 µM | 4.36 µM | – | inactive | – | inactive | – |
| Cc1ccccc1C1CC(c2ccccc2)=NN1c1ccc(S(N)(=O)=O)cc1 (stereo not given) | – | – | inactive | inactive | – | 14.7 µM | 15.3 µM | – | inactive | inactive | – | – |
| COc1ccc(C2CC(C(C)(C)C)=NN2c2ccc(S(N)(=O)=O)cc2)cc1 (stereo not given) | – | – | inactive | inactive | – | 16.4 µM | 14.4 µM | – | – | inactive | – | inactive |
| COc1ccc(C2CC(c3ccc(N(C)C)cc3)=NN2c2ccc(S(N)(=O)=O)cc2)cc1 (stereo not given) | inactive | inactive | inactive | inactive | – | – | – | – | inactive | inactive | – | – |
| NS(=O)(=O)c1ccc(N2N=C(c3ccccc3)CC2c2ccccc2Cl)cc1 (stereo not given) | inactive | – | inactive | inactive | – | – | inactive | – | inactive | inactive | – | – |
| COc1ccc(C2CC(c3ccc(C(F)(F)F)cc3)=NN2c2ccc(S(N)(=O)=O)cc2)cc1 (stereo not given) | inactive | inactive | inactive | inactive | – | – | – | – | inactive | inactive | – | – |
| COc1cccc(C2CC(c3ccccc3)=NN2c2ccc(S(N)(=O)=O)cc2)c1 (stereo not given) | – | – | – | inactive | – | 4.65 µM | 4.69 µM | inactive | inactive | inactive | – | – |
| COc1ccc(C2CC(c3ccccc3OC)=NN2c2ccc(S(N)(=O)=O)cc2)cc1 (stereo not given) | – | – | inactive | inactive | – | 5.28 µM | 5.66 µM | – | inactive | inactive | – | – |

Now from value to compound, other results behind:

| GTP binding remaining (% of DMSO) ([1]; Cdc42ACT) | GTP binding remaining (% of DMSO) ([1]; Cdc42WT) | GTP binding remaining (% of DMSO) ([3]; RhoACT) | GTP binding remaining (% of DMSO) ([3]; RhoWT) | EC50 ([3]; RhoWT) | EC50 ([1]; Cdc42ACT) | EC50 ([1]; Cdc42WT) | EC50 ([3]; RhoACT) | Compound | GTP binding remaining (% of DMSO) ([2]; Rac1ACT) | GTP binding remaining (% of DMSO) ([2]; Rac1WT) | EC50 ([2]; Rac1WT) | EC50 ([2]; Rac1ACT) |
| --- | --- | --- | --- | --- | --- | --- | --- | --- | --- | --- | --- | --- |
| inactive | inactive | inactive | inactive | – | – | – | – | COc1ccc(-c2ccc(CCC(=O)N3CCN(c4cc(C)ccc4C)CC3)[nH]2)cc1 | inactive | inactive | – | – |
| inactive | inactive | inactive | – | inactive | – | – | – | COc1ccc(-c2noc(CCC(=O)N3CCC(c4cc(C)ccc4C)CC3)n2)cc1 | inactive | – | 11.9 µM | – |
| – | – | inactive | – | 1.3 µM | 2.78 µM | 0.97 µM | – | COc1ccc(-c2cc(CCC(=O)N3CCN(c4cc(C)ccc4C)CC3)on2)cc1 | inactive | – | 2.76 µM | – |
| – | – | inactive | inactive | – | 1.85 µM | 2.11 µM | – | COc1ccc(C2CC(c3cccc(C)c3)=NN2c2ccc(S(N)(=O)=O)cc2)cc1 (stereo not given) | – | inactive | – | inactive |
| – | – | inactive | inactive | – | inactive | inactive | – | COc1ccc(C2CC(c3ccc(C)cc3)=NN2c2ccc(S(N)(=O)=O)cc2)cc1 (stereo not given) | inactive | inactive | – | – |
| inactive | inactive | inactive | inactive | – | – | – | – | COc1ccc(-c2cc(CCC(=O)N3CCN(c4cc(C)ccc4C)CC3)[nH]n2)cc1 | inactive | inactive | – | – |
| inactive | inactive | inactive | inactive | – | – | – | – | COc1ccc(C2CC(C)=NN2c2ccc(S(N)(=O)=O)cc2)cc1 (stereo not given) | – | inactive | – | inactive |
| – | – | – | – | inactive | inactive | inactive | inactive | COc1ccc(-c2noc(CCC(=O)N3CCN(c4cc(C)ccc4C)CC3)n2)cc1 | inactive | – | 2.37 µM | – |
| inactive | inactive | inactive | inactive | – | – | – | – | COc1ccc(-c2ccc(CCC(=O)N3CCN(c4cc(C)ccc4C)CC3)s2)cc1 | inactive | inactive | – | – |
| inactive | inactive | inactive | inactive | – | – | – | – | COc1ccc(-c2ccc(CCC(=O)N3CCN(c4cc(C)ccc4C)CC3)o2)cc1 | inactive | inactive | – | – |
